Read-outs that look alike come from different tables or passages of the source.

A short description of series [1]: Pharmacokinetics of regorafenib in plasma (HPLC–MS/MS) after a single oral 120 mg dose in healthy male subjects. Type of series: in vivo, human. The conditions noted are these: for half-life: plasma. How it is done:
(§1) Subjects were screened within the 28 days before scheduled drug administration and entered the clinical unit 1 day before drug administration. After an overnight fasting, subjects received a single oral 120 mg dose of regorafenib, containing approximately 100 μCi (3.7 MBq) [^14C]regorafenib, as a 6 mL solution in an aqueous PEG-based vehicle (Diluent Sol 30 mL oral, Bayer HealthCare AG) followed by 240 mL water. The associated radiation exposure fell within International Commission on Radiological Protection Guidelines for Category IIa studies (0.1–1 mSv).
(§2) Blood and plasma: Blood samples (18.7 mL per each time point) were collected into nonbeaded lithium-heparinized tubes immediately pre-dose and at the following post-dose times: 0.5, 1, 1.5, 2, 2.5, 3, 4, 6, 9, 12, 16, 20, 24, 36, 48, 72, 96, 120, 144, 192, 240, and 288 h. For each sample, 1 mL of whole blood was stored at 4 °C for subsequent LSC and the remainder was processed for plasma. Individual 150 μL plasma samples for each time point were treated with formic acid (20 μL) and acetonitrile (450 μL). The samples were homogenized using a MS2 Minishaker® (IKA® Labortechnik, Staufen im Breisgau, Germany). The precipitated proteins were removed by centrifugation (5 min, 13,000 rpm, Biofuge). After concentrating the supernatant to about 80 μL, methanol (15 μL) was added. The individual samples were analyzed by HPLC with off-line radioactivity detection for metabolite profiling.
Quantitative analysis of regorafenib in plasma was performed after protein precipitation using a fully validated HPLC–MS/MS assay. The analyses were performed in accordance with the 2001 FDA guidelines on bioanalytical validation. [^2H3,^15N]-regorafenib was used as internal standard (final concentration: 12.5 µg/L). The calibration range was from 2.00 µg/L to 2.00 mg/L. Quality control samples in the concentration range 5.00 µg/L to […] were determined with an accuracy of 98.1–103% and a precision of 1.55–10.0% (n = 6–8/concentration). All samples were stored at or below − 15 °C and analyzed within 14 days after sample receipt.
(§3) Pharmacokinetic outcome measures were generated by non-compartmental analysis of plasma concentration–time data using WinNonlin v4.1 (Pharsight Corporation) in conjunction with Kincalc v2.50 (Bayer AG). For individual subjects, primary outcome measures were maximum observed concentration (C max) and area under the concentration–time curve from time zero to infinity (AUC). […] The metabolite or regorafenib percentages were calculated by AUC(0–144)metabolite or regorafenib divided by AUC(0–144)radioactivity calculated from data obtained by HPLC–LSC analysis. Secondary outcomes were: time to C max (t max); apparent terminal elimination half-life (t ½); apparent volume of distribution during the terminal phase after extravascular administration (Vz/F); and total body clearance of drug calculated after extravascular administration (e.g., apparent oral clearance) (CL/F). AUC was estimated by the sum of partial areas: partial areas were calculated using the linear (if C i ≤ C i+1) or the logarithmic (if C i > C i+1) trapezoidal rules. The quality of the half-life calculation was assessed based on graphs showing the concentration–time profile. For reliable calculation of the half-life, at least three data points (concentration/time values) were used. The extrapolated portion of the AUC from the last measured data point C(t n) to infinity was calculated using the concentration C last,calc, which was calculated from the log-linear regression line used for half-life calculation rather than C(t n). In addition, appropriate pharmacokinetic parameters were derived from the total radioactivity-versus-time data in blood and plasma.

Series [2] in a line: Total radioactivity in plasma and whole blood (LSC) after a single oral dose of [14C]regorafenib. Type of series: in vivo, human. The settings on record: for C max of total radioactivity: geometric mean (%CV), N = 4. The protocol:
as §1, §2
Liquid samples: Duplicate aliquots of liquid samples were diluted with 1 mL distilled water, if necessary, and mixed with 10 mL Aquasafe 500 Plus scintillation fluid. Levels of radioactivity were measured by LSC (PerkinElmer 2100) with automatic quench correction by an external standard channel ratio method at 13 °C using Ultima Gold™ as the liquid scintillation cocktail. Lower limits of detection (LLOD) were 30 μg-Eq/L for plasma (sample volume 0.5 mL), 50 μg-Eq/L for whole blood (sample volume 0.3 mL), and 0.016 μg-Eq/g for urine (sample weight 1 g).
as §3, with “AG).” for “AG). For individual subjects, primary outcome measures were maximum observed concentration (C max) and area under the concentration–time curve from time zero to infinity (AUC).”, “For reliable calculation of the half-life, at least three data points (concentration/time values) were used.” left out

Series [3] can be described thus: Metabolite profiling in plasma by HPLC–LSC. The format is in vivo, human. The protocol: as §2, §3
Due to the limited amount of radiocarbon associated with many of the samples, analyses were conducted using HPLC with fraction collection followed by off-line LSC. Samples were analyzed on a 150 × 3 mm Prodigy® ODS-3 100A, 3 µm column (Phenomenex, Aschaffenburg, Germany) protected by 8 × 3 mm Nucleosil® 100-3 C18 HD guard columns (Macherey–Nagel, Düren, Germany). Metabolites were separated with a gradient of aqueous potassium dihydrogen phosphate (1 g/L, pH 2.0, mobile phase A) versus acetonitrile (mobile phase B) at a flow rate of 0.5 mL/min (gradient: 0% B at 0 min, linear to 50% B at 10 min, linear to 60% B at 25 min, linear to 80% B at 26 min, plateau at 80% B to 30 min). The radiochemical profile of [^14C]regorafenib-derived radioactivity was determined for all urine samples, plasma extracts, and fecal homogenate extracts. Here, HPLC fractionation into 96-well plates was followed by off-line LSC (Wallac 1450 MicroBeta liquid scintillation analyzer) after adding 150 μL of scintillation cocktail to each well (Ultima-Flo™ AP, PerkinElmer; sampling rate: 10 s/well) using the Wallac 1450 Microbeta™ Plusliquid detector. Reconstructed radiochemical profiles were compiled from the resulting data.

Series [4] deals with UGT1A9. Details: method as in PMID 24896071, PMID 27734608. The settings on record: in vitro data; cited from earlier work.
The mark [5] stands for this setting: male, human, regorafenib in plasma, LC–MS/MS, single oral 120 mg solution, N = 4, geometric mean (%CV).

What is called Tmax is the time at which the peak concentration occurs. The term AUC denotes concentration integrated over time. Read a high AUC as more exposure. The Cmax is the maximum level reached in the sampled fluid or tissue. `CNC(=O)c1cc(Oc2ccc(NC(=O)Nc3ccc(Cl)c(C(F)(F)F)c3)c(F)c2)ccn1` [Regorafenib, 4-[4-({[4-chloro-3-(trifluoromethyl)phenyl]carbamoyl}amino)-3-fluorophenoxy]-N-methylpyridine-2-carboxamide]: the half-life in series [1] (human, oral, 120 mg, except for subject 003, read-out: Half-lives for regorafenib, range between subjects) was 39 to 48 h; in series [1] (human, oral, 120 mg, subject 003, read-out: Calculated t 1/2 for regorafenib (converted)), approximately 62 h; in series [1] (male, human, oral, 120 mg, regorafenib in plasma, geometric mean (%CV), N = 4, read-out: t 1/2 (converted)) it was 48.6 h. Besides, in series [1] (male, human, oral, 120 mg, regorafenib in plasma, geometric mean (%CV), N = 4, read-out: Vz/F), the Vd/F came to 216 L. For the same compound, the time to peak (Tmax) in series [1] (male, human, oral, 120 mg, regorafenib in plasma, median (range), N = 4) was 1.25 h. This compound also had an AUC in series [1] (setting [5]) of 39000 ng·h/mL. In series [1] (setting [5]), this compound yielded a peak concentration (Cmax) of 1580 ng/mL. Also, in series [1] (regorafenib in plasma, geometric mean (%CV), N = 4), the CL/F was 3.08 (34.9) L/h. Also, the “Estimated half-lives of total radioactivity, range between subjects” value in series [2] (in vivo) is 34 to 42 h. Also, the “C max of total radioactivity” value in series [2] (plasma) worked out at 2.90 mg-Eq/L; in series [2] (whole blood), 1.95 mg-Eq/L. For the same compound, in series [2] (total radioactivity), the “% of AUC(144–inf), extrapolated portion” value was “% of AUC(144–inf): total (2.6%), extrapolated portion”. Moreover, the “Binding of regorafenib-derived radioactivity to red blood cells” value in series [2] (whole blood versus plasma radioactivity) is given as “does not bind substantially to red blood cells”. Moreover, the “Percent of total AUC(0–144) of radioactivity in plasma” value in series [3] (based on HPLC–LSC, mean) is on record as 57.4%. The “Mean total exposure, AUC(0–144 h)” value in series [3] (plasma, HPLC–LSC) was determined as 46.89 mg-Eq·h/L. Moreover, the “Enzyme catalyzing conjugation with glucuronic acid” value in series [4] is “by UGT1A9”.

The values above are taken from article PMC5754413, “Mass balance, metabolic disposition, and pharmacokinetics of a single oral dose of regorafenib in healthy human subjects” (Cancer Chemotherapy and Pharmacology, 2017).
